Reference: patent US20030207432A1, “Remedies for intractable wound” (Fujisawa Pharmaceutical Co., Ltd.,, priority 1999, published 2003)
Entries after “also recorded” stand apart in the source; their conditions may differ.

Assays:
[1] = tested on: foot ulcer induced by acetic acid; experiment: Foot ulcer induced by acetic acid, normal rats (applied FR136706); type: in vivo, rat; conditions: for Ulcer area after administration of acetic acid / Swelling score after administration of acetic acid: normal rat, 0.2% in PEG400 applied, average, n=6; for Swelling score after administration of acetic acid: score 0-3
Protocol: (§1) The action of the compound (applied) in accordance with this invention on a foot ulcer induced by acetic acid was examined by using normal and diabetic rats. Diabetes was induced in each of a seven-week-old male SD rats by intravenously administrating 60 mg/kg streptozotocin (STZ) to its tail. Fourteen days after the administration of STZ, 20 μl glacial acetic acid was administered into the skin of the left foot instep of each of the diabetic rats and control rats of the same age while anesthetized using ether, thereby causing necrosis at the portion. In the case when the necrotic cuticle of the skin remained two days after the necrosis, the cuticle was removed surgically. Then, the administration of FR136706 (0.2% solution in PEG (polyethylene glycol) 400) was started (50 μl to the affected portion). PEG400 was administered to the control group in a similar way. In a period between two days and 25 days after the administration of acetic acid, swelling scores (0: no swelling, 1: slight swelling, 2: intermediate swelling, 3: significant swelling) was checked visually, and the major axis length and the minor axis length of each ulcer was measured with vernier calipers. The area of each ulcer was calculated from the major axis length and the minor axis length thereof.

[2] = tested on: foot ulcer induced by acetic acid; experiment: Diabetic rat foot ulcer curing action (STZ diabetic rats, foot ulcer induced by acetic acid); type: in vivo; conditions: for Ulcer area after administration of acetic acid / Swelling score after administration of acetic acid: diabetic rat, 0.2% in PEG400 applied, average, n=6; for Swelling score after administration of acetic acid: score 0-3
Protocol: as §1

[3] = qualitative, by solvent; known properties from earlier filings; cited from earlier work
[4] = normal rats, 0.2% solution in PEG400 applied
[5] = diabetic rats, 0.2% solution in PEG400 applied

CC(C)C(NC(=O)[C@@H]1CCCN1C(=O)[C@@H](NC(=O)c1ccc(C(=O)NCC(=O)[O-])cc1)C(C)C)C(=O)C(F)(F)F.[Na+] (mixture of isomers) [FR136706, Sodium salt of 3(RS)-[[4-(carboxymethylaminocarbonyl)phenylcarbonyl]-L-valyl-L-prolyl]amino-1,1,1-trifluoro-4-methyl-2-oxopentane]
Ulcer area after administration of acetic acid ([1]; after 2 days): 58.37 mm^2 | Swelling score after administration of acetic acid ([1]; after 2 days): 2.5 | Ulcer area after administration of acetic acid ([1]; after 8 days): 71.42 mm^2 | Swelling score after administration of acetic acid ([1]; after 8 days): 2.0 | Ulcer area after administration of acetic acid ([1]; after 11 days): 53.21 mm^2 | Swelling score after administration of acetic acid ([1]; after 11 days): 1.5 | Ulcer area after administration of acetic acid ([1]; after 15 days): 18.32 mm^2 | Swelling score after administration of acetic acid ([1]; after 15 days): 1.0 | Ulcer area after administration of acetic acid ([1]; after 18 days): 0.69 mm^2 | Swelling score after administration of acetic acid ([1]; after 18 days): 0.5 | Ulcer area after administration of acetic acid ([1]; after 22 days): 0.00 mm^2 | Swelling score after administration of acetic acid ([1]; after 22 days): 0.0 | Ulcer area after administration of acetic acid ([1]; after 25 days): 0.00 mm^2 | Swelling score after administration of acetic acid ([1]; after 25 days): 0.0 | Effect on contraction of ulcer areas (in words) [1, 4]: did not act on the normal rats | Effect on recovery of swelling scores (in words) [1, 4]: did not act on the normal rats | Ulcer area after administration of acetic acid ([2]; after 2 days): 69.17 mm^2 | Swelling score after administration of acetic acid ([2]; after 2 days): 2.2 | Ulcer area after administration of acetic acid ([2]; after 8 days): 91.77 mm^2 | Swelling score after administration of acetic acid ([2]; after 8 days): 2.8 | Ulcer area after administration of acetic acid ([2]; after 11 days): 72.38 mm^2 | Swelling score after administration of acetic acid ([2]; after 11 days): 2.5 | Ulcer area after administration of acetic acid ([2]; after 15 days): 41.00 mm^2 | Swelling score after administration of acetic acid ([2]; after 15 days): 1.5 | Ulcer area after administration of acetic acid ([2]; after 18 days): 16.10 mm^2 | Swelling score after administration of acetic acid ([2]; after 18 days): 1.5 | Ulcer area after administration of acetic acid ([2]; after 22 days): 12.08 mm^2 | Swelling score after administration of acetic acid ([2]; after 22 days): 1.2 | Ulcer area after administration of acetic acid ([2]; after 25 days): 6.99 mm^2 | Swelling score after administration of acetic acid ([2]; after 25 days, & significant at 5% vs PEG400 diabetic group): 0.7 | Effect on contraction of ulcer areas (in words) [2, 5]: tended to promote the contraction of the ulcer areas of the diabetic rats | Effect on recovery of swelling scores (in words) [2, 5]: promoted the recovery of the diabetic rats

Dipotassium salt of the WS7622A disulfate ester
Solubility [3]: soluble: water, methanol; also recorded: insoluble: chloroform, n-hexane

Disodium salt of WS7622A disulfate ester
Solubility [3]: soluble: water, methanol; also recorded: insoluble: chloroform, n-hexane
